These results are taken from patent publication US20150060744A1, “[…] BLUE DYE COMPOUND, BLUE RESIN COMPOSITION FOR COLOR FILTER CONTAINING SAME AND COLOR FILTER USING SAME” (KYUNG SYNTHETIC CO., LTD., priority 2012, published 2015).

This series is described as follows: Solubility of blue dye compounds in PGMEA and cyclohexanone. Format: physicochemical. The note with it: for Solubility in PGMEA: solvent PGMEA (propylene glycol monomethyl ether acetate); for Solubility in cyclohexanone: solvent cyclohexanone.

Where only a bound is given, the exact number is not on record here.

In the case of `CN(C)c1ccc(C(=C2C=CC(=[N+](C)C)C=C2)c2ccc(Nc3ccccc3)c3ccccc23)cc1` [compound 2], the “Solubility in PGMEA” value is under 1% and the Solubility in cyclohexanone is listed as under 3%.

In the case of `C=C(C)C(=O)OCCN(CC)c1ccc(C(=C2C=CC(=[N+](CC)CCOC(=O)C(=C)C)C=C2)c2ccc(Nc3ccccc3)c3ccccc23)cc1` [Syn. Ex. 1], the “Solubility in PGMEA” value was over 10% and the Solubility in cyclohexanone is over 10%.

Turning to `C=C(C)C(=O)OCCN(CC)c1ccc(C(=C2C=CC(=[N+](CC)CCOC(=O)C(=C)C)C=C2)c2ccc(Nc3ccccc3)c3ccccc23)cc1` [Comp. Ex. 1], the “Solubility in PGMEA” value is recorded as under 1% and the Solubility in cyclohexanone is given as under 3%.
